Measurements from article PMC8307904, “Synthesis and Structure of Novel Copper(II) Complexes with N,O- or N,N-Donors as Radical Scavengers and a Functional Model of the Active Sites in Metalloenzymes” (International Journal of Molecular Sciences, 2021).
Entries after “also recorded” stand apart in the source; their conditions may differ. Read-outs that look alike come from different tables or passages of the source.

Experiments:
[1] = ABTS radical assay (free radical scavenging); assay type: biochemical
Procedure: We investigated the free radical scavenging ability of the selected ligands and their newly synthesised complexes using the ABTS assay. 2,2′-Azinobis-[3-ethylbenzthiazoline-6-sulfonic acid] (ABTS) was dissolved in Milli-Q water to yield a 7 mM solution. The ABTS radical cation solution was prepared by allowing the ABTS solution to react with the K2S2O8 solution (final concentration 2.45 mM) for 16 h in the dark at room temperature. It has been reported that the extinction coefficient of ABTS^•+ radicals at 734 nm is 1.5 × 10^4 mol^−1 L cm^−1. Using the Beer–Lambert law, ABTS^•+ radical concentrations were calculated. To determine the antioxidant capacity of the complex solutions and standard antioxidant (Trolox), the ABTS solution was diluted with 5 mM PBS (pH 7.4) to an absorbance at 732 nm of 0.7 ± 0.1 After the addition of different volumes (0–1 mL) of each compound solution to 2.5 mL of diluted ABTS^•+, the absorbance was measured at 30 min. All samples were analysed in triplicate. The ABTS^•+radical scavenging activity (AA%) was calculated using the following equation: AA% = ((Acontrol − Asample)/(Acontrol)) × 100, where Acontrol is the absorbance of the blank control (containing ABTS^•+ solution without test sample) and Asample is the absorbance of the test sample. The antioxidant activity was described as the 50% inhibition concentration (IC50). The IC50 values were calculated from regression lines where x is the concentration of complex or ligand in mM and y is the percent inhibition of the analysed compound.

solubility = assay type: physicochemical
Procedure: (§1) Among the synthetic compounds used for modelling biological systems, mimetics that are soluble in solvents of neutral pH are particularly favoured because they can penetrate cell membranes and, thus, be absorbed by the organism. […] Additionally, we checked the stability of selected complexes in buffer solution (PBS) at two different time points (0 min and 12 h).

[2] = stability in buffer solution (PBS) by UV-Vis; assay type: physicochemical; settings: room temperature, 0 min and 12 h, UV-Vis spectra
Procedure: as §1

[3] = tested on: healthy mouse fibroblast cell line (BALB/3T3); assay: in vitro cytotoxicity / proliferation, BALB/3T3; assay type: cell-based; settings: for IC50: BALB/3T3 normal cell line, read-out: IC50 (inhibits proliferation of 50% of cells)
Description: (§2) For IC50 determination, the human cancer lines A549 (non-small cell lung carcinoma), HT29 (colon adenocarcinoma) and MCF-7 (breast adenocarcinoma), and a healthy mouse fibroblast cell line (BALB/3T3), were used. All tested cell lines were obtained from the American Type Culture Collection (Rockville, MD, USA) and maintained at the Cell Culture Collection of the Hirszfeld Institute of Immunology and Experimental Therapy (Wrocław, Poland). The details of the experimental conditions were described in [69]. […] IC50 values were calculated separately for each experiment, which was repeated 3–5 times.

[4] = tested on: HT29 (colon adenocarcinoma); assay: in vitro cytotoxicity / proliferation, HT29; assay type: cell-based, human; settings: read-out: IC50 (inhibits proliferation of 50% of cells)
Description: as §2

[5] = parameters: method as in PMID 24406400; settings: aqueous solution; cited from earlier work
SOD = SOD activity (RANSOD test) in patients' blood samples after addition of the mimetic; assay type: biochemical, human
Description: (§3) The present study was based on 20 women of the Regional Hospital in Kielce who had previously undergone therapy for diagnosed breast tumour, and 10 healthy volunteers (samples were anonymised). Patients were divided into subgroups those after chemotherapy (n = 10) and after radiotherapy (n = 10). The protocol and procedures were undertaken according to the Helsinki Declaration and were approved by the Bioethics Committee of the Świętokrzyska Medical Chamber in Kielce (permission number 1/2015-B). Before obtaining blood, patients and healthy subjects signed informed consent and agreed to the use of the samples for research purposes. Approximately 5 mL of blood was taken from the patients by venous puncture. Blood samples were collected in 3 mL tubes containing EDTA as an anticoagulant, and in tubes with no anticoagulant. Tubes were centrifuged at 3500 rpm for 15 min to obtain plasma and serum, respectively. Erythrocytes were washed with 0.9% sodium chloride. […]
(§4) The activities of TAS, SOD, CAT and GPx were measured using commercial kits, according to the manufacturers’ instructions. […]
The SOD activity was measured with the RANSOD test (Randox Laboratories, United Kingdom) based on the method of McCord and Fridovich. […] The superoxide dismutase activity is measured by the degree of inhibition of this reaction. […] The activity of SOD was measured spectrophotometrically at 505 nm and expressed as U/mL.

CAT = CAT activity (Catalase assay kit) in patients' blood samples after addition of the mimetic; assay type: biochemical, human; settings: post-chemotherapy group, 25 µg/mL, versus samples without complex
Description: as §3, with “respectively.” for “respectively. Erythrocytes were washed with 0.9% sodium chloride.”
as §4
The CAT activity measurement was measured with the Catalase assay kit (Calbiochem, Merck, Darmstadt, Germany) based on the reaction of the enzyme with methanol in the presence of an optimal concentration of H2O2 [72]. The formaldehyde produced is measured colourimetrically (at 540 nm) with 4-amino-3-hydrazino- 5-mercapto-1,2,4-triazole (Purpald) as the chromogen.

[6] = tested on: A549 (non-small cell lung carcinoma); assay: in vitro cytotoxicity / proliferation, A549; assay type: cell-based, human; settings: read-out: IC50 (inhibits proliferation of 50% of cells)
Description: as §2

[7] = tested on: MCF-7 (breast adenocarcinoma); assay: in vitro cytotoxicity / proliferation, MCF-7; assay type: cell-based, human; settings: read-out: IC50 (inhibits proliferation of 50% of cells)
Description: as §2

[8] = tested on: total antioxidant status (TAS); assay: TAS level (RANDOX test) in patients' blood samples after addition of the mimetic; assay type: biochemical, human; settings: post-chemotherapy group, 25 µg/mL, versus samples without complex
Description: as §3, §4
The TAS level was evaluated by RANDOX test (Randox Laboratories, United Kingdom) following the method described by Miller et al.. […] Suppression of the blue-green colour of radicals (measured at 600 nm) is proportional to antioxidants’ concentration (TAS). The results were expressed as mmol/L serum.

[9] = ABTS^•+ diluted with 5 mM PBS pH 7.4, absorbance at 30 min, read-out: IC50 (ABTS radical scavenging activity)

## OC(O)(c1ccccn1)c1ccccn1.OC(O)(c1ccccn1)c1ccccn1.[Cu+2].[O-][Cl+3]([O-])([O-])[O-].[O-][Cl+3]([O-])([O-])[O-] [complex 5, [Cu(py2C(OH)2)2](ClO4)2]
[1]; [9]
  IC50: 24500 ± 500 µM
solubility
  solubility in water: soluble in water
[2]
  stability in buffer solution (PBS): confirmed the stability

## OCCc1ccccn1.OCCc1ccccn1.[Cu+2].[Cu+2].[O-]CCc1ccccn1.[O-]CCc1ccccn1.[O-][Cl+3]([O-])([O-])[O-].[O-][Cl+3]([O-])([O-])[O-] [complex 3, [Cu2(2-(HOCH2CH2)py)2(2-(OCH2CH2)py)2](ClO4)2]
[1]; [9]
  IC50: 620 ± 50 µM
solubility
  solubility in water: soluble in water
[2]
  stability in buffer solution (PBS): confirmed the stability

## N.N.[Cl][Pt][Cl] [cisplatin, reference compound]
[3]
  IC50: 3.33 ± 0.38 µM
[4]
  IC50: 9.23 ± 0.77 µM

## OCc1ccccn1 [2-(HOCH2)py, 2-(hydroxymethyl)pyridine, reference compound]
[1]; [9]
  IC50: 3790 ± 230 µM

## OCCc1ccccn1 [2-(HOCH2CH2)py, 2-(hydroxyethyl)pyridine, reference compound]
[1]; [9]
  IC50: 7000 µM

## O.O.OCc1ccccn1.OCc1ccccn1.OCc1ccccn1.OCc1ccccn1.[Cl-].[Cl-].[Cl-].[Cl-].[Mn+2].[Mn+2] [[Mn2(μ-Cl)2(2-CH2OHpy)4]Cl2·2H2O]
[5]
  TOF (catalytic activity, H2O2 decomposition): 0.0187 min⁻¹

## [Cu(2-(HOCH2)py)3](ClO4)2 [complex 1]
[1]; [9]
  IC50: 260 ± 30 µM
[1]; Figure 10a and b50, unit inferred, read-out: IC50 (ABTS radical scavenging), unit inferred
  IC50: 260 ± 30 µM
solubility
  solubility in water: soluble in water; also recorded: good solubility in water
[3]; BALB/3T3, versus cisplatin
  lower cytotoxicity against normal cell line compared to cisplatin: about 30 times
[3]
  IC50: 106 ± 4.2 µM
SOD; post-chemoradiotherapy group with mimetic
  SOD activity higher compared to the control group: 4.2 U/mL
SOD; post-chemotherapy group, complex 25 μg/mL of blood
  SOD activity: 211.91 U/mL
CAT
  increase of CAT enzyme activity after addition of the mimetic: 0.18 U/mL
[6]
  IC50: 94.7 ± 3.9 µM
[4]
  IC50: 98.5 ± 2.7 µM
[7]
  IC50: 91.7 ± 2.9 µM
[8]
  increase of total antioxidant status after addition of the mimetic: 0.17 U/mL
[2]
  stability in buffer solution (PBS): confirmed the stability
